Data as given in PubChem BioAssay (NCI).
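Test compounds were applied to cells in 96-well plates for 48 hours at 5 doses. At the GI50, growth is halved. The concentration for full growth arrest is given as TGI.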

How the values were obtained:
Experiment in all cases: inhibition of tumour cell growth, NCI panel, 48 h
KM12 colon = tested on: KM12 colon
NCI-H23 lung = tested on: NCI-H23 lung
U251 CNS = tested on: U251 CNS
OVCAR-3 ovarian = tested on: OVCAR-3 ovarian
SK-MEL-5 melanoma = tested on: SK-MEL-5 melanoma
SR leukemia = tested on: SR leukemia
ACHN renal = tested on: ACHN renal
NCI-H460 lung = tested on: NCI-H460 lung
HL-60(TB) leukemia = tested on: HL-60(TB) leukemia
CCRF-CEM leukemia = tested on: CCRF-CEM leukemia
NCI-H226 lung = tested on: NCI-H226 lung
SF-539 CNS = tested on: SF-539 CNS
HOP-62 NSCLC = tested on: HOP-62 NSCLC
SK-OV-3 ovarian = tested on: SK-OV-3 ovarian
SK-MEL-2 melanoma = tested on: SK-MEL-2 melanoma
HT29 colon = tested on: HT29 colon
NCI/ADR-RES ovarian = tested on: NCI/ADR-RES ovarian
HCT-15 colon = tested on: HCT-15 colon
CAKI-1 renal = tested on: CAKI-1 renal
HOP-92 NSCLC = tested on: HOP-92 NSCLC
786-0 renal = tested on: 786-0 renal
UO-31 renal = tested on: UO-31 renal
OVCAR-5 ovarian = tested on: OVCAR-5 ovarian
SN12C renal = tested on: SN12C renal
A498 renal = tested on: A498 renal
EKVX NSCLC = tested on: EKVX NSCLC
NCI-H522 lung = tested on: NCI-H522 lung
MALME-3M melanoma = tested on: MALME-3M melanoma
SF-295 CNS = tested on: SF-295 CNS
HCC-2998 colon = tested on: HCC-2998 colon
RXF 393 renal = tested on: RXF 393 renal
COLO 205 colon = tested on: COLO 205 colon
HS 578T breast = tested on: HS 578T breast
K-562 leukemia = tested on: K-562 leukemia
RPMI-8226 leukemia = tested on: RPMI-8226 leukemia
SW-620 colon = tested on: SW-620 colon
M14 melanoma = tested on: M14 melanoma
PC-3 prostate = tested on: PC-3 prostate
OVCAR-4 ovarian = tested on: OVCAR-4 ovarian
IGROV1 ovarian = tested on: IGROV1 ovarian
MCF7 breast = tested on: MCF7 breast
UACC-62 melanoma = tested on: UACC-62 melanoma
TK-10 renal = tested on: TK-10 renal
MDA-MB-231 breast = tested on: MDA-MB-231 breast
SK-MEL-28 melanoma = tested on: SK-MEL-28 melanoma
UACC-257 melanoma = tested on: UACC-257 melanoma
HCT-116 colon = tested on: HCT-116 colon
DU-145 prostate = tested on: DU-145 prostate
SNB-75 CNS = tested on: SNB-75 CNS
MDA-MB-435 = tested on: MDA-MB-435
A549 NSCLC = tested on: A549 NSCLC
OVCAR-8 ovarian = tested on: OVCAR-8 ovarian
T-47D breast = tested on: T-47D breast
SNB-19 CNS = tested on: SNB-19 CNS
MOLT-4 leukemia = tested on: MOLT-4 leukemia
BT-549 breast = tested on: BT-549 breast
LOX IMVI melanoma = tested on: LOX IMVI melanoma
SF-268 CNS = tested on: SF-268 CNS

COC(=O)c1c2c(c[n+]([O-])c1C)C(=O)C=C(NCc1ccccc1)C2=O
GI50 (KM12 colon): 222 nM
TGI (KM12 colon): 785 nM
GI50 (NCI-H23 lung): 169 nM
TGI (NCI-H23 lung): 421 nM
GI50 (U251 CNS): 255 nM
TGI (U251 CNS): 787 nM
GI50 (OVCAR-3 ovarian): 41.3 nM
TGI (OVCAR-3 ovarian): 209 nM
GI50 (SK-MEL-5 melanoma): 140 nM
TGI (SK-MEL-5 melanoma): 274 nM
GI50 (SR leukemia): 204 nM
GI50 (ACHN renal): 210 nM
TGI (ACHN renal): 579 nM
GI50 (NCI-H460 lung): 215 nM
TGI (NCI-H460 lung): 476 nM
GI50 (HL-60(TB) leukemia): 174 nM
TGI (HL-60(TB) leukemia): 445 nM
GI50 (CCRF-CEM leukemia): 264 nM
TGI (CCRF-CEM leukemia): 955 nM
GI50 (NCI-H226 lung): 338 nM
TGI (NCI-H226 lung): 1490 nM
GI50 (SF-539 CNS): 182 nM
TGI (SF-539 CNS): 353 nM
GI50 (HOP-62 NSCLC): 209 nM
TGI (HOP-62 NSCLC): 590 nM
GI50 (SK-OV-3 ovarian): 425 nM
TGI (SK-OV-3 ovarian): 1600 nM
GI50 (SK-MEL-2 melanoma): 171 nM
TGI (SK-MEL-2 melanoma): 363 nM
GI50 (HT29 colon): 211 nM
TGI (HT29 colon): 1420 nM
GI50 (NCI/ADR-RES ovarian): 237 nM
TGI (NCI/ADR-RES ovarian): 798 nM
GI50 (HCT-15 colon): 151 nM
TGI (HCT-15 colon): 350 nM
GI50 (CAKI-1 renal): 289 nM
TGI (CAKI-1 renal): 1120 nM
GI50 (HOP-92 NSCLC): 287 nM
TGI (HOP-92 NSCLC): 822 nM
GI50 (786-0 renal): 295 nM
TGI (786-0 renal): 1220 nM
GI50 (UO-31 renal): 183 nM
TGI (UO-31 renal): 477 nM
GI50 (OVCAR-5 ovarian): 192 nM
TGI (OVCAR-5 ovarian): 390 nM
GI50 (SN12C renal): 156 nM
TGI (SN12C renal): 298 nM
GI50 (A498 renal): 210 nM
TGI (A498 renal): 1050 nM
GI50 (EKVX NSCLC): 205 nM
TGI (EKVX NSCLC): 507 nM
GI50 (NCI-H522 lung): 189 nM
TGI (NCI-H522 lung): 509 nM
GI50 (MALME-3M melanoma): 42.3 nM
TGI (MALME-3M melanoma): 153 nM
GI50 (SF-295 CNS): 154 nM
TGI (SF-295 CNS): 298 nM
GI50 (HCC-2998 colon): 213 nM
TGI (HCC-2998 colon): 492 nM
GI50 (RXF 393 renal): 197 nM
TGI (RXF 393 renal): 521 nM
GI50 (COLO 205 colon): 151 nM
TGI (COLO 205 colon): 372 nM
GI50 (HS 578T breast): 263 nM
TGI (HS 578T breast): 710 nM
GI50 (K-562 leukemia): 192 nM
TGI (K-562 leukemia): 1860 nM
GI50 (RPMI-8226 leukemia): 258 nM
TGI (RPMI-8226 leukemia): 843 nM
GI50 (SW-620 colon): 258 nM
TGI (SW-620 colon): 727 nM
GI50 (M14 melanoma): 161 nM
TGI (M14 melanoma): 315 nM
GI50 (PC-3 prostate): 208 nM
TGI (PC-3 prostate): 996 nM
GI50 (OVCAR-4 ovarian): 90.4 nM
TGI (OVCAR-4 ovarian): 225 nM
GI50 (IGROV1 ovarian): 167 nM
TGI (IGROV1 ovarian): 389 nM
GI50 (MCF7 breast): 149 nM
TGI (MCF7 breast): 361 nM
GI50 (UACC-62 melanoma): 154 nM
TGI (UACC-62 melanoma): 304 nM
GI50 (TK-10 renal): 690 nM
TGI (TK-10 renal): 2090 nM
GI50 (MDA-MB-231 breast): 200 nM
TGI (MDA-MB-231 breast): 618 nM
GI50 (SK-MEL-28 melanoma): 245 nM
TGI (SK-MEL-28 melanoma): 554 nM
GI50 (UACC-257 melanoma): 148 nM
TGI (UACC-257 melanoma): 323 nM
GI50 (HCT-116 colon): 189 nM
TGI (HCT-116 colon): 586 nM
GI50 (DU-145 prostate): 172 nM
TGI (DU-145 prostate): 316 nM
GI50 (SNB-75 CNS): 166 nM
TGI (SNB-75 CNS): 309 nM
GI50 (MDA-MB-435): 125 nM
TGI (MDA-MB-435): 255 nM
GI50 (A549 NSCLC): 227 nM
TGI (A549 NSCLC): 564 nM
GI50 (OVCAR-8 ovarian): 220 nM
TGI (OVCAR-8 ovarian): 787 nM
GI50 (T-47D breast): 197 nM
TGI (T-47D breast): 653 nM
GI50 (SNB-19 CNS): 281 nM
TGI (SNB-19 CNS): 954 nM
GI50 (MOLT-4 leukemia): 203 nM
TGI (MOLT-4 leukemia): 497 nM
GI50 (BT-549 breast): 169 nM
TGI (BT-549 breast): 319 nM
GI50 (LOX IMVI melanoma): 175 nM
TGI (LOX IMVI melanoma): 451 nM
GI50 (SF-268 CNS): 263 nM
TGI (SF-268 CNS): 929 nM
